Data taken from US11331289B2, “Antimicrobial composition” (priority 2017, dated 2022).

Columns and labels:
S. aureus n°16 315 = assay: Time-killing curve, broth macrodilution; format: cell-based, Staphylococcus aureus
Experimental: (§1) The time-killing curve is used to determine the bactericidal or bacteriostatic activity of the antibimicrobial substances. Time-killing curves of Oxyclozanide against canine isolates of Staphylococcus aureus and Staphylococcus pseudintermedius were obtained using broth macrodilution method. After contact of different fixed amounts of Oxyclozanide with an inoculum, viable bacteria are counted immediately after contact and after 1, 3, 6 and 24 hours. Counting is performed on agar medium without antimicrobial substance.
(§2) Results are analyzed by plotting log10 CFU/ml versus time for each tested concentration. Bactericidal activity as defined by 99.9% killing of the inoculum is determined from time-killing curves by noting the presence of a ≥3 log10 decrease in CFU/ml.
(§3) Bacterial strains were sub-cultured twice from one cryobead on Mueller Hinton agar and incubated at 37° C. for 18-24 hours. From the second subcultures, isolated colonies were transferred into tubes containing 2 ml of Mueller Hinton Broth in order to obtain bacterial suspensions at 10^8 CFU/ml, knowing that an optical density of 0.1 at 620 nm corresponds to bacterial suspension at 10^8 CFU/ml. Then, bacterial suspensions were adjusted between 5 10^7 and 1 10^8 CFU/ml by dilution in Mueller Hinton broth.
(§4) For each concentration of Oxyclozanide to be tested, 50 μl of working solution concentrated 100× and […] of inoculum were added to 5 ml of Mueller-Hinton broth. Thus, the range of tested concentrations was from 0.125 to 8 μg/ml and the concentration of micro-organism was between 1 10^6 and 2 10^6 CFU/ml.
(§5) At the same time, a tube without Oxyclozanide was prepared: 50 μl of DMSO and 100 μl of inoculum were added to 5 ml of Mueller-Hinton broth and used as growth control. Tubes were incubated at 36° C. under agitation.
(§6) The numbers of viable bacteria were determined immediately after contact (TO) and after 1, 3, 6 and 24 h of incubation.
(§7) At each time, samples of each tube were taken and dilutions were performed in Mueller-Hinton broth. Then, dilutions were spread on Mueller Hinton agar with spiral plater. After 18 h of incubation at 36° C., counting of colonies was performed with automatic colony counter which determine the concentrations of viable bacteria. The technique employed made it possible to quantify bacterial concentrations as low as 20 CFU/ml.
(§8) Time-killing curves were plotted for each concentration of Oxyclozanide using Microsoft Excel software. The number or surviving bacteria was expressed as log10 CFU/ml. The time-killing curves of each strain represent the decrease in the viable bacteria count as a function of time for the Oxyclozanide concentrations concerned.
(§9) Bactericidal activity as defined by 99.9% killing of the inoculum is determined from time-killing curves by noting the presence of a ≥3 log10 decrease in CFU/ml.

S. aureus n°16 302 = assay: Time-killing curve, broth macrodilution; format: cell-based, Staphylococcus aureus
Experimental: as §1, §2, §3, §4, §5, §6, §7, §8, §9

For `O=C(Nc1cc(Cl)cc(Cl)c1O)c1c(O)c(Cl)cc(Cl)c1Cl` [Oxyclozanide], the Bacteria reducing rate (S. aureus n°16 315; 0.25 μg/ml (½ MIC), 1 h) was 0.3 Δ log10 CFU/ml, the Viable bacteria count (S. aureus n°16 315; 0.25 μg/ml (½ MIC), 1 h) was 6.7 Log10 CFU/ml and the Bacteria reducing rate (S. aureus n°16 315; 0.25 μg/ml (½ MIC), 3 h) was 0.3 Δ log10 CFU/ml. For the same compound, the Viable bacteria count (S. aureus n°16 315; 0.25 μg/ml (½ MIC), 3 h) was 6.7 Log10 CFU/ml, the Bacteria reducing rate (S. aureus n°16 315; 0.25 μg/ml (½ MIC), 6 h) was 0.7 Δ log10 CFU/ml and the Bacteria reducing rate (S. aureus n°16 315; 0.25 μg/ml (½ MIC), 24 h) was 1.8 Δ log10 CFU/ml. The Bacteria reducing rate (S. aureus n°16 315; 0.5 μg/ml (MIC), 1 h) was −0.1 Δ log10 CFU/ml, the Bacteria reducing rate (S. aureus n°16 315; 0.5 μg/ml (MIC), 3 h) was 0.1 Δ log10 CFU/ml and the Viable bacteria count (S. aureus n°16 315; 0.5 μg/ml (MIC), 3 h) was 6.6 Log10 CFU/ml. For the same compound, the Bacteria reducing rate (S. aureus n°16 315; 0.5 μg/ml (MIC), 6 h) was −0.2 Δ log10 CFU/ml, the Bacteria reducing rate (S. aureus n°16 315; 0.5 μg/ml (MIC), 24 h) was 0.5 Δ log10 CFU/ml and the Viable bacteria count (S. aureus n°16 315; 0.5 μg/ml (MIC), 24 h) was 7.0 Log10 CFU/ml. For the same compound, the Bacteria reducing rate (S. aureus n°16 315; 1 μg/ml (2 MIC), 1 h) was 0.0 Δ log10 CFU/ml, the Bacteria reducing rate (S. aureus n°16 315; 1 μg/ml (2 MIC), 3 h) was 0.1 Δ log10 CFU/ml and the Viable bacteria count (S. aureus n°16 315; 1 μg/ml (2 MIC), 3 h) was 6.6 Log10 CFU/ml. The Bacteria reducing rate (S. aureus n°16 315; 1 μg/ml (2 MIC), 6 h) was −0.3 Δ log10 CFU/ml, the Bacteria reducing rate (S. aureus n°16 315; 1 μg/ml (2 MIC), 24 h) was −1.2 Δ log10 CFU/ml and the Bacteria reducing rate (S. aureus n°16 315; 2 μg/ml (4 MIC), 1 h) was 0.1 Δ log10 CFU/ml. For the same compound, the Viable bacteria count (S. aureus n°16 315; 2 μg/ml (4 MIC), 1 h) was 6.5 Log10 CFU/ml, the Bacteria reducing rate (S. aureus n°16 315; 2 μg/ml (4 MIC), 3 h) was 0.2 Δ log10 CFU/ml and the Viable bacteria count (S. aureus n°16 315; 2 μg/ml (4 MIC), 3 h) was 6.6 Log10 CFU/ml. For the same compound, the Bacteria reducing rate (S. aureus n°16 315; 2 μg/ml (4 MIC), 6 h) was −1.1 Δ log10 CFU/ml, the Bacteria reducing rate (S. aureus n°16 315; 2 μg/ml (4 MIC), 24 h) was −2.3 Δ log10 CFU/ml and the Bacteria reducing rate (S. aureus n°16 315; 4 μg/ml (8 MIC), 1 h) was 0.0 Δ log10 CFU/ml. The Bacteria reducing rate (S. aureus n°16 315; 4 μg/ml (8 MIC), 3 h) was −0.7 Δ log10 CFU/ml, the Viable bacteria count (S. aureus n°16 315; 4 μg/ml (8 MIC), 3 h) was 5.7 Log10 CFU/ml and the Bacteria reducing rate (S. aureus n°16 315; 4 μg/ml (8 MIC), 6 h) was −1.8 Δ log10 CFU/ml. For the same compound, the Viable bacteria count (S. aureus n°16 315; 4 μg/ml (8 MIC), 6 h) was 4.6 Log10 CFU/ml, the Bacteria reducing rate (S. aureus n°16 315; 4 μg/ml (8 MIC), 24 h) was −5.1 Δ log10 CFU/ml and the Bacteria reducing rate (S. aureus n°16 315; 8 μg/ml (16 MIC), 1 h) was 0.1 Δ log10 CFU/ml. The Bacteria reducing rate (S. aureus n°16 315; 8 μg/ml (16 MIC), 3 h) was −1.5 Δ log10 CFU/ml, the Viable bacteria count (S. aureus n°16 315; 8 μg/ml (16 MIC), 3 h) was 4.8 Log10 CFU/ml and the Bacteria reducing rate (S. aureus n°16 315; 8 μg/ml (16 MIC), 6 h) was −2.3 Δ log10 CFU/ml. The Bacteria reducing rate (S. aureus n°16 315; 8 μg/ml (16 MIC), 24 h) was −5.0 Δ log10 CFU/ml, the Bacteria reducing rate (S. aureus n°16 302; 0.25 μg/ml (½ MIC), 1 h) was 0.0 Δ log10 CFU/ml and the Bacteria reducing rate (S. aureus n°16 302; 0.25 μg/ml (½ MIC), 3 h) was 0.1 Δ log10 CFU/ml. The Bacteria reducing rate (S. aureus n°16 302; 0.25 μg/ml (½ MIC), 6 h) was 0.6 Δ log10 CFU/ml, the Bacteria reducing rate (S. aureus n°16 302; 0.25 μg/ml (½ MIC), 24 h) was 1.7 Δ log10 CFU/ml and the Bacteria reducing rate (S. aureus n°16 302; 0.5 μg/ml (MIC), 1 h) was 0.0 Δ log10 CFU/ml. For the same compound, the Bacteria reducing rate (S. aureus n°16 302; 0.5 μg/ml (MIC), 3 h) was 0.0 Δ log10 CFU/ml, the Bacteria reducing rate (S. aureus n°16 302; 0.5 μg/ml (MIC), 6 h) was −0.3 Δ log10 CFU/ml and the Bacteria reducing rate (S. aureus n°16 302; 0.5 μg/ml (MIC), 24 h) was 1.6 Δ log10 CFU/ml. The Bacteria reducing rate (S. aureus n°16 302; 1 μg/ml (2 MIC), 1 h) was 0.0 Δ log10 CFU/ml, the Bacteria reducing rate (S. aureus n°16 302; 1 μg/ml (2 MIC), 3 h) was 0.0 Δ log10 CFU/ml and the Bacteria reducing rate (S. aureus n°16 302; 1 μg/ml (2 MIC), 6 h) was −0.2 Δ log10 CFU/ml. The Bacteria reducing rate (S. aureus n°16 302; 1 μg/ml (2 MIC), 24 h) was 1.5 Δ log10 CFU/ml, the Viable bacteria count (S. aureus n°16 302; 1 μg/ml (2 MIC), 24 h) was 7.9 Log10 CFU/ml and the Bacteria reducing rate (S. aureus n°16 302; 2 μg/ml (4 MIC), 1 h) was 0.0 Δ log10 CFU/ml. For the same compound, the Bacteria reducing rate (S. aureus n°16 302; 2 μg/ml (4 MIC), 3 h) was −0.1 Δ log10 CFU/ml, the Bacteria reducing rate (S. aureus n°16 302; 2 μg/ml (4 MIC), 6 h) was −0.5 Δ log10 CFU/ml and the Viable bacteria count (S. aureus n°16 302; 2 μg/ml (4 MIC), 6 h) was 6.0 Log10 CFU/ml. For the same compound, the Bacteria reducing rate (S. aureus n°16 302; 2 μg/ml (4 MIC), 24 h) was −2.5 Δ log10 CFU/ml, the Viable bacteria count (S. aureus n°16 302; 4 μg/ml (8 MIC), 0 h) was 6.5 Log10 CFU/ml and the Bacteria reducing rate (S. aureus n°16 302; 4 μg/ml (8 MIC), 1 h) was −0.2 Δ log10 CFU/ml. For the same compound, the Bacteria reducing rate (S. aureus n°16 302; 4 μg/ml (8 MIC), 3 h) was −0.7 Δ log10 CFU/ml, the Viable bacteria count (S. aureus n°16 302; 4 μg/ml (8 MIC), 3 h) was 5.8 Log10 CFU/ml and the Bacteria reducing rate (S. aureus n°16 302; 4 μg/ml (8 MIC), 6 h) was −2.3 Δ log10 CFU/ml. The Bacteria reducing rate (S. aureus n°16 302; 4 μg/ml (8 MIC), 24 h) was −4.1 Δ log10 CFU/ml, the Viable bacteria count (S. aureus n°16 302; 4 μg/ml (8 MIC), 24 h) was 2.4 Log10 CFU/ml and the Bacteria reducing rate (S. aureus n°16 302; 8 μg/ml (16 MIC), 1 h) was −0.8 Δ log10 CFU/ml. For the same compound, the Viable bacteria count (S. aureus n°16 302; 8 μg/ml (16 MIC), 1 h) was 5.7 Log10 CFU/ml, the Bacteria reducing rate (S. aureus n°16 302; 8 μg/ml (16 MIC), 3 h) was −2.3 Δ log10 CFU/ml and the Bacteria reducing rate (S. aureus n°16 302; 8 μg/ml (16 MIC), 6 h) was −3.8 Δ log10 CFU/ml. The Viable bacteria count (S. aureus n°16 302; 8 μg/ml (16 MIC), 6 h) was 2.7 Log10 CFU/ml and the Bacteria reducing rate (S. aureus n°16 302; 8 μg/ml (16 MIC), 24 h) was −5.2 Δ log10 CFU/ml.
